# Measured values from PMC2180168 (BMC Pharmacology, 2007).
# How the values were obtained:
# in vivo = details: CD1, mouse, plasma, ip
# [1] = tested on: anaplastic large cell lymphoma with NPM-ALK fusion protein cell lines; parameters: method as in PMID 11532349; details: cited from earlier work
# [2] = tested on: multiple myeloma cell line; details: cited from earlier work
# [3] = tested on: refractory/relapsed myeloma; details: patients with refractory/relapsed myeloma; cited from earlier work
# [4] = tested on: Hodgkin lymphoma cell lines; parameters: method as in PMID 11953894; details: cited from earlier work
Structure (SMILES),AUC(0-t) (in vivo; 12 mg/kg/d) [ng·h/mL],AUC(0-t) (in vivo; 12 mg/kg/day) [ng·h/mL],half-life (in vivo; 12 mg/kg/day) [min],effect in anaplastic large cell lymphoma cell lines [1],in vitro antiproliferative effect on a multiple myeloma cell line [2],response in phase II trial [3],effect in Hodgkin lymphoma cell lines [4]
COc1cc([C@@H]2c3cc4c(cc3[C@@H](O[C@@H]3O[C@@H]5CO[C@@H](C)O[C@H]5[C@H](O)[C@H]3O)[C@H]3COC(=O)[C@H]23)OCO4)cc(OC)c1O [etoposide],17900,20000,14.4,–,–,–,–
Cc1ccc(NC(=O)c2ccc(CN3CCN(C)CC3)cc2)cc1Nc1nccc(-c2cccnc2)n1 [imatinib],–,–,–,minimal effect,antiproliferative effect,no response,minimal effect
